Assay results taken from the OPERA property sets (Mansouri et al. 2018).
Peptide text beside a SMILES is read from it.

Compared with `COc1cc(CCN)cc(OC)c1Br`, `CCN(CC)CCNC(=O)c1cc(F)c(N)cc1OC` is higher in logP: 2.03 for the first, 2.28 for the second.

Compared with `O=C1c2ccccc2Cc2ccccc21`, `O=C1OC(c2ccccc2)c2ccccc21` (configuration not stated) is lower in logP: 3.66 for the first, 2.64 for the second.

First: CCOC(=O)c1ccc(N)cc1
Second: CCCCOc1ccc(C(=O)O)cc1
The logP of the first is lower: 1.86 for the first, 3.57 for the second.

First: CNC(=O)COc1ccccc1
Second: CC(=S)Nc1ccccc1
The logP of the first is lower: 1.02 for the first, 1.71 for the second.

Compared with `N#Cc1ccc(C#N)cc1`, `N#Cc1sc2c(=O)c3ccccc3c(=O)c=2sc1C#N` is higher in logP: 0.93 for the first, 2.84 for the second.

First: COP(=S)(OC)Oc1ccc([N+](=O)[O-])c(C)c1
Second: COc1ccc([N+](=O)[O-])cc1N
The logP of the first is higher: 3.3 for the first, 1.47 for the second.

Compared with `CC(C)CCO[N+](=O)[O-]`, `CCNC(C)C` is lower in logP: 2.84 for the first, 0.93 for the second.

Going from `Nc1ccnc2ccccc12` to `Nc1cccc2ncccc12`, the logP falls from 1.63 to 1.16.

First: Cc1ccncc1
Second: Cc1cccc(C)c1O
The logP of the first is lower: 1.22 for the first, 2.36 for the second.

Going from `FC(F)(F)c1ccccc1N=C1NCCN1` to `O=S1(=O)N=CNc2ccccc21`, the logP falls from 1.42 to 0.16.

Going from `Cc1c(Cl)ccc(OC(C)C(O)=Nc2ccccc2)c1Cl` (configuration not stated) to `Cc1ccc(NC(=O)c2ccccc2)c(O)c1`, the logP falls from 4.8 to 3.08.

Compared with `Nc1cc(N=O)ccc1O`, `Nc1ccc(C(=O)O)cc1O` is higher in logP: 0.03 for the first, 0.5 for the second.

First: CCC(C)C(NC(=O)C(Cc1ccccc1)NC(C)=O)C(=O)NCC(N)=O (stereo not drawn) (Ac-Phe-Ile-Gly-NH2; configuration not given here)
Second: COC(=O)C(Cc1ccccc1)NC(C)=O (configuration not stated)
The logP of the first is lower: 0.34 for the first, 0.92 for the second.

Compared with `C=C(C)C`, `CNC(C)=O` is lower in logP: 2.34 for the first, -1.05 for the second.

`NC(=O)Nc1cccc2cccnc12` and `c1cnc2c(c1)ccc1cccnc12` are within 0.2 log units of each other in logP: 1.62 for the first, 1.78 for the second.

First: CCCCCCCCn1cc(C)c(=O)[nH]c1=O
Second: C=CCCCCCCCCC(=O)O
The logP of the first is lower: 3.08 for the first, 3.86 for the second.

First: CC(C)Oc1cc(-n2nc(C(C)(C)C)oc2=O)c(Cl)cc1Cl
Second: Oc1cc(Cl)c(Cl)c(Cl)c1
The logP of the first is higher: 4.8 for the first, 4.01 for the second.

Going from `CC1CCCC1` to `CCC1CCCCN1C(=O)COC(=O)c1ccccc1` (configuration not stated), the logP falls from 3.37 to 2.62.

First: CN(C)C(=O)C=Cc1ccccc1
Second: CN(C)C(N(C)C)=S(I)c1ccccc1C(=O)O (configuration not stated)
The logP of the first is higher: 1.73 for the first, -1.4 for the second.

Compared with `S=C=NCCc1ccccc1`, `CCCCCOC(=O)Nc1ccccc1` is higher in logP: 3.47 for the first, 3.8 for the second.

Going from `Cc1cn(C2OC(CO)C(O)C2O)c(=O)nc1N` (configuration not stated) to `COc1cccc2c1C(=N)c1c(O)c3c(c(O)c1C2=O)CC(O)(C(O)CO)CC3OC1CC(N2CCOCC2)C(O)C(C)O1` (configuration not stated), the logP rises from -2.01 to 1.43.

`CCC(C)(C)C(=O)O` and `COC(=O)C(C)(C)C` are within 0.2 log units of each other in logP: 1.9 for the first, 1.83 for the second.

Going from `COc1cc2c(c(OC)c1OC)-c1ccc(=O)c(OC)cc1[C@@H](NC(=O)C(F)(F)F)CC2` to `CC(=O)Nc1ccc2c(c1)[nH]c1ccccc12`, the logP rises from 2.08 to 3.02.

Going from `COc1cccc(C(N)=O)c1` to `Nc1cccc(Br)c1`, the logP rises from 0.85 to 2.1.

Going from `C[C@@H]1C[C@@]2(C)[C@@H](CC[C@@H]3[C@@H]2CC[C@]2(C)[C@@H](O)CC[C@@H]32)CC1=O` to `C#C[C@]1(O)CC[C@H]2[C@@H]3CCc4cc(O)ccc4[C@H]3CC[C@@]21C`, the logP falls from 3.99 to 3.67.

First: CCCCC1C(=O)NC(=O)NC1=O
Second: CCC1(CC(C)C(C)C)C(=O)NC(=O)NC1=O (configuration not stated)
The logP of the first is lower: 0.77 for the first, 2.02 for the second.

Going from `CC(=O)NC(CO)C(O)c1ccc([N+](=O)[O-])cc1` (configuration not stated) to `O=[N+]([O-])c1ccc(O)c(O)c1`, the logP rises from -0.03 to 1.66.

First: CCCNc1nc(NC(C)C)nc(SC(F)F)n1
Second: CC[C@H](C)[C@H](NC(C)=O)C(=O)N[C@@H](C)C(=O)N[C@H](C(N)=O)C(C)C
The logP of the first is higher: 4.23 for the first, -0.21 for the second.

First: O=C(O)c1ccccc1Br
Second: O=C(O)c1ccoc1
The logP of the first is higher: 2.2 for the first, 1.03 for the second.

Compared with `ClCCl`, `CCOC(=O)C(Cl)(Cl)Cl` is higher in logP: 1.25 for the first, 2.39 for the second.

Going from `C#CC` to `Cn1cccc1`, the logP rises from 0.94 to 1.21.

Compared with `CC(=O)OC(OC(C)=O)c1ccc([N+](=O)[O-])o1`, `Nc1cccc([N+](=O)[O-])c1` is higher in logP: 1.06 for the first, 1.37 for the second.

Going from `NCc1cc(O)no1` to `Cc1cc(C)ncn1`, the logP rises from -2.39 to 0.62.

First: CC(C)N1CCN=C1CN1CCCCSc2ccc(Cl)cc21
Second: OCCN1CCCCC1
The logP of the first is higher: 5.15 for the first, 0.96 for the second.

Compared with `C=CCC(CC=C)(NC(C)=O)C(N)=O`, `CC(=O)N[C@@H](CC(N)=O)C(=O)N[C@H](C(N)=O)C(C)C` is lower in logP: 0.05 for the first, -1.85 for the second.

First: Nc1c2ccccc2nc2ccccc12
Second: Nc1ccc2ccccc2c1
The logP of the first is higher: 2.74 for the first, 2.28 for the second.

First: CN(C)C(N(C)C)=S(I)c1ccc(Cl)c(Cl)c1Cl (configuration not stated)
Second: Clc1ccc(Cl)c(Cl)n1
The logP of the first is lower: 0.95 for the first, 2.77 for the second.

First: C1=CC=CCC=C1
Second: COc1cnc2ccccc2n1
The logP of the first is higher: 2.63 for the first, 2.31 for the second.

Going from `Oc1ccc(Br)cc1Br` to `Brc1cc(Br)cc(Br)c1`, the logP rises from 3.22 to 4.51.

First: COP(=O)(OC)O/C(C)=C/C(=O)N(C)C
Second: CCOP(=O)(OCC)Oc1ccc(SC)cc1Cl
The logP of the first is lower: 0 for the first, 3.05 for the second.

Compared with `Oc1ccc(Cl)cc1Cc1cc(Cl)ccc1O`, `CCOc1cccc(Cl)n1` is lower in logP: 4.26 for the first, 2.55 for the second.
